# Assays:
# [1] = Pharmacokinetic test in rats; format: in vivo; details: male, SD, rat, plasma; for Vd: read-out: Vdss
# Protocol: 3. Pharmacokinetic Test in Rats
# 3.1 Experimental animals: male SD rats, about 220 g, 6-8 weeks old, 6 rats/compound, purchased from Chengdu Ddossy Experimental Animals Co., Ltd.
# 3.2 Experimental design: on the day of the test, 24 SD rats were randomly grouped according to their body weight; the animals were fasted with water available for 12 to 14 h one day before the administration, and were fed 4 h after the administration;
# (DMA: dimethylacetamide; Solutol: Polyethylene glycol-15-hydroxystearate; Saline: Normal saline; MC: methylcellulose)
# (§1) Before and after the administration, 0.15 ml of blood was taken from the orbit of the animals under isoflurane anesthesia and placed in an EDTAK2 centrifuge tube. The blood was centrifuged at 5000 rpm and 4° C. for 10 min to collect plasma. The blood collection time points for the intravenous administration group and intragastric administration group were: 0, 5 min, 15 min, 30 min, 1 h, 2 h, 4 h, 6 h, 8 h, and 24 h. Before analysis and detection, all samples were stored at −80° C., and a quantitative analysis of samples was performed using LC-MS/MS.
# [2] = Pharmacokinetic test in mice; format: in vivo; details: male, ICR, mouse, plasma; for Vd: read-out: Vdss
# Protocol: 4. Pharmacokinetic Test in Mice
# 4.1 Experimental animals: male ICR mice, 20-25 g, 18 mice/compound. purchased from Chengdu Ddossy Experimental Animals Co., Ltd.
# 4.2 Experimental design: on the day of the test, 72 ICR mice were randomly grouped according to their body weights. the animals were fasted with water available for 12 to 14 h one day before the administration, and were fed 4 h after the administration;
# as §1, with “administration, 0.06 mL” for “administration, 0.15 ml”, “intravenous” for “intravenous administration”, “administration […]” for “administration”, “were: 0 min,” for “were: 0,”
# [3] = biological target: hERG potassium ion channel (Homo sapiens (Human), UniProt Q12809); experiment: Test for hERG potassium ion channel (manual patch-clamp, CHO cells); format: cell-based; details: for IC50: CHO cells stably expressing hERG, whole cell patch-clamp, read-out: IC50 on hERG potassium channel current; for inhibition at 40 µM: human, CHO cells stably expressing hERG potassium channel, hERG potassium channel current, read-out: Inhibition rate at the highest concentration tested
# Source text: 5. Test for hERG Potassium Ion Channel
# Test platform: electrophysiological manual patch-clamp system
# Cell line: Chinese hamster ovary (CHO) cell lines stably expressing hERG potassium ion channel Test method: In CHO (Chinese Hamster Ovary) cells stably expressing hERG potassium channel, whole cell patch-clamp technique was used to record hERG potassium channel current at room temperature. The glass microelectrode was made of a glass electrode blank (BF150-86-10, Sutter) by a puller. The tip resistance after filling the liquid in the electrode was about 2-5 MΩ. The glass microelectrode can be connected to the patch-clamp amplifier by inserting the glass microelectrode into an amplifier probe. The clamping voltage and data recording were controlled and recorded by the pClamp 10 software through a computer. The sampling frequency was 10 kHz, and the filtering frequency was 2 kHz. After the whole cell records were obtained, the cells were clamped at −80 mV, and the step voltage that induced the hERG potassium current (I hERG) was depolarized from −80 mV to +20 mV for 2 s, then repolarized to −50 mV, and returned to −80 mV after 1 s. This voltage stimulation was given every 10 s, and the administration process was started after the hERG potassium current was confirmed to be stable (at least 1 minute). The compound was administered for at least 1 minute at each test concentration, and at least 2 cells ([…]) were tested at each concentration.
# Data processing: Data analysis processing was carried out by using pClamp 10, GraphPad Prism 5 and Excel software. The inhibition degree of hERG potassium current (peak value of hERG tail current induced at −50 mV) at different compound concentrations was calculated by the following formula:
# Inhibition %=[1−(I/Io)]×100% wherein, Inhibition % represents the percentage of inhibition of hERG potassium current by the compound, and I and Io represent the amplitude of hERG potassium current after and before dosing, respectively.
# IC50 for the compound was calculated using GraphPad Prism 5 software by fitting according to the following equation:
# Y=Bottom+(Top−Bottom)/(1+10^((LogIC50−X)*HillSlope)) wherein, X represents the Log value of the tested concentration of the test sample, Y represents the inhibition percentage at the corresponding concentration, and Bottom and Top represent the minimum and maximum inhibition percentage, respectively.
# [4] = biological target: CYP1A2 (Homo sapiens (Human), UniProt P05177); experiment: CYP450 enzyme inhibition test, human liver microsomes; format: in vitro ADME; details: incubation concentration 0-50/100 μM
# Protocol: (§2) 6. CYP450 Enzyme Inhibition Test
# (§3) The purpose of this study was to evaluate the effect of the test compound on the activity of five isoenzymes (CYP1A2, CYP2C9, CYP2C19, CYP2D6 and CYP3A4) of human liver microsomal cytochrome P450 (CYP) by using an in vitro testing system. The specific probe substrates of CYP450 isoenzymes were incubated with human liver microsomes and test compounds of different concentrations, and reduced nicotinamide adenine dinucleotide phosphate (NADPH) was added to initiate the reaction. After the completion of the reaction, the sample was treated and liquid chromatography-tandem mass spectrometry (LC-MS/MS) was used to quantitatively detect metabolites produced by specific substrates, changes in CYP enzyme activity were determined, and IC50 value was calculated to evaluate the inhibitory potential of the test compound on each CYP enzyme subtype.
# [5] = biological target: CYP2C9 (Homo sapiens (Human), UniProt P11712); experiment: as above; format: in vitro ADME; details: incubation concentration 0-50/100 μM
# Protocol: as §2, §3
# [6] = biological target: CYP2D6 (Homo sapiens (Human), UniProt P10635); experiment: as above; format: in vitro ADME; details: incubation concentration 0-50/100 μM
# Protocol: as §2, §3
# [7] = biological target: CYP3A4 (Homo sapiens (Human), UniProt P08684); experiment: as above; format: in vitro ADME; details: incubation concentration 0-50/100 μM, read-out: IC50 CYP3A-M
# Protocol: as §2, §3
# Chain of CYP2C9 (P11712 whole entry): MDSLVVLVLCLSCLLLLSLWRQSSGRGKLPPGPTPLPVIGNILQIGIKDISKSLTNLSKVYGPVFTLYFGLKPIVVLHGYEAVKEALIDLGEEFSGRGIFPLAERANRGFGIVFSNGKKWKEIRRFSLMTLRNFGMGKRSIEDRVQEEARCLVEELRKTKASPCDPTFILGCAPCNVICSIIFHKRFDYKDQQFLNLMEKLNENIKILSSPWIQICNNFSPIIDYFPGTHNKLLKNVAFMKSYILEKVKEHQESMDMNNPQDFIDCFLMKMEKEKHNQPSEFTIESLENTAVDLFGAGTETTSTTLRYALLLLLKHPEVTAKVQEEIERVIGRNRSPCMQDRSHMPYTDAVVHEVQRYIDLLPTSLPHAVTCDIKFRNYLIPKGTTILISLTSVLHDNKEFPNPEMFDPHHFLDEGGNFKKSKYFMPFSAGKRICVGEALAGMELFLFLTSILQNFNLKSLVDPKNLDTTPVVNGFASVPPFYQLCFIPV
# Chain of CYP2D6 (P10635 whole entry): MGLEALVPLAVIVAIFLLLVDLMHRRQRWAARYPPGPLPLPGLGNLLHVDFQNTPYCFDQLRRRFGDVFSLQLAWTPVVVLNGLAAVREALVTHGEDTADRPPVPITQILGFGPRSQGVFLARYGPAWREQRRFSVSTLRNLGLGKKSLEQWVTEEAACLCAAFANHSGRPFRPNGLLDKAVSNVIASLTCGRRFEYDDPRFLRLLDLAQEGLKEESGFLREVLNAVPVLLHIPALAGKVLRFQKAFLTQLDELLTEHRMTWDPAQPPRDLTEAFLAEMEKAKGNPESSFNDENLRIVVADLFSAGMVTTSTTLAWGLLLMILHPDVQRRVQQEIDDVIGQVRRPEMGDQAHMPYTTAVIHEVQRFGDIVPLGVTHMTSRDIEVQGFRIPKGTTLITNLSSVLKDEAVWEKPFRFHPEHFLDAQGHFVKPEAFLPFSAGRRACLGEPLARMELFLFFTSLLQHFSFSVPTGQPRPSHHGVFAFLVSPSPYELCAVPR
# Chain of CYP3A4 (P08684 whole entry): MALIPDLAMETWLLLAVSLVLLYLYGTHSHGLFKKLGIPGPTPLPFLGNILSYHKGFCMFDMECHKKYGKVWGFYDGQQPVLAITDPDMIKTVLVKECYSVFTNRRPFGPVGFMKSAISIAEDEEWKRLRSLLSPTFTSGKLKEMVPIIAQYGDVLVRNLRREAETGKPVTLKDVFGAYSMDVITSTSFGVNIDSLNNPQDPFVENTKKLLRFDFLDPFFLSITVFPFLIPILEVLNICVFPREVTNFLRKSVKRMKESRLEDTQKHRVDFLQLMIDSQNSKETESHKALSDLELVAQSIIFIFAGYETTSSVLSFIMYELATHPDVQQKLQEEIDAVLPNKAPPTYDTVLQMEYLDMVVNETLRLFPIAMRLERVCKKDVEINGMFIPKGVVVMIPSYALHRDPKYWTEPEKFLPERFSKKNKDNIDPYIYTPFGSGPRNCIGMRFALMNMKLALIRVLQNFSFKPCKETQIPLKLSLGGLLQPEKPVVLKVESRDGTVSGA
# Chain of hERG potassium ion channel (Q12809 whole entry): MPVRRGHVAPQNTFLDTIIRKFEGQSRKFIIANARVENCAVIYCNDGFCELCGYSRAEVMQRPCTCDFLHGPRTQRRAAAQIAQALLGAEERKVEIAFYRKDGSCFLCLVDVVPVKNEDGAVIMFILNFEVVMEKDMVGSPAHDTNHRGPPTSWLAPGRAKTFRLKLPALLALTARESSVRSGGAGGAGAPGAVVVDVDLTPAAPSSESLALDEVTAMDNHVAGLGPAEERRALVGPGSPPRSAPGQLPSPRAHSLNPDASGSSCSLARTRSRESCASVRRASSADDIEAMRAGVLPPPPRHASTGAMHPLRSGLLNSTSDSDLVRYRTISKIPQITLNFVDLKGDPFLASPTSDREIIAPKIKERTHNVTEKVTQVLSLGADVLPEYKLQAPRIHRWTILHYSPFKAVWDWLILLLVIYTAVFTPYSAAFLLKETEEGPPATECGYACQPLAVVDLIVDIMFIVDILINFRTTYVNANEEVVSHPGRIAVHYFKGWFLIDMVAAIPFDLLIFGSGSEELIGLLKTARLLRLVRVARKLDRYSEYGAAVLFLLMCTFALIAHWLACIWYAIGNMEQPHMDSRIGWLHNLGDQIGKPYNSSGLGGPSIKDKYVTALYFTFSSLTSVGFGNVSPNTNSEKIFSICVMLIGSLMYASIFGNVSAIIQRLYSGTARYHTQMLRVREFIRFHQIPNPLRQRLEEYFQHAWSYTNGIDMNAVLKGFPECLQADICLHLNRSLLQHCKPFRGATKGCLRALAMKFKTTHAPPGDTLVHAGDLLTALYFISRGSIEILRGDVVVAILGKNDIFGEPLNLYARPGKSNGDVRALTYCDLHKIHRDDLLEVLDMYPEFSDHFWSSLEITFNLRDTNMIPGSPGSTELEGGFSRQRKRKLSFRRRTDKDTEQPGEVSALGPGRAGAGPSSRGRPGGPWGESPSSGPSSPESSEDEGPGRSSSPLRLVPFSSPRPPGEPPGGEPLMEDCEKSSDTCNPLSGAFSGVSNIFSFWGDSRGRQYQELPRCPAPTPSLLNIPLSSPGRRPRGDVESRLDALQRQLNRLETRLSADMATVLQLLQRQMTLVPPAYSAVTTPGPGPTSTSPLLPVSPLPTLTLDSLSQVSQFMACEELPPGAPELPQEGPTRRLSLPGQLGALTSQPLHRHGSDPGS
# Chain of CYP1A2 (P05177 whole entry): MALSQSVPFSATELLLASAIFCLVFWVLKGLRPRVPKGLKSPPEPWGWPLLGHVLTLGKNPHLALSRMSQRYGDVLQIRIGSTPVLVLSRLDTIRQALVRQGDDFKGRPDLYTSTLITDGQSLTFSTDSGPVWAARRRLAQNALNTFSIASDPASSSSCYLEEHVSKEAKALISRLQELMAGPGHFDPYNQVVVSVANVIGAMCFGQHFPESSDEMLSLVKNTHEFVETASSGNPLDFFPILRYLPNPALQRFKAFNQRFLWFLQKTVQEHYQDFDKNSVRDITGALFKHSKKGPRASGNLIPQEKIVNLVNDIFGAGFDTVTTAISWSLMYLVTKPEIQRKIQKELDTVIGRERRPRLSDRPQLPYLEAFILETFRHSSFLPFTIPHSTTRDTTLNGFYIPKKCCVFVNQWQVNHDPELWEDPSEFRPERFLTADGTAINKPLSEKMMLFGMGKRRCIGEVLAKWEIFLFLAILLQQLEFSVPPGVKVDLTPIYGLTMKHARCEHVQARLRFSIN
"AUC(0-t) ([1]; iv, i.v. (2.5 mg/kg)) [ng·h/mL]","clearance ([1]; iv, i.v. (2.5 mg/kg)) [mL/min/kg]","Vd ([1]; iv, i.v. (2.5 mg/kg)) [L/kg]","bioavailability ([1]; po, i.g. (10 mg/kg)) [%]","AUC(0-t) ([1]; po, i.g. (10 mg/kg)) [ng·h/mL]","AUC(0-t) ([2]; iv, i.v. (5 mg/kg)) [ng·h/mL]","clearance ([2]; iv, i.v. (5 mg/kg)) [mL/min/kg]","Vd ([2]; iv, i.v. (5 mg/kg)) [L/kg]","bioavailability ([2]; po, i.g. (10 mg/kg)) [%]","AUC(0-t) ([2]; po, i.g. (10 mg/kg)) [ng·h/mL]",IC50 [4] [µM],IC50 [5] [µM],IC50 [6] [µM],IC50 [7] [µM],Compound,IC50 [3] [µM],inhibition at 40 µM [3] [%]
2070 ± 294,16.9 ± 4,12.2 ± 1.5,55 ± 13,4560 ± 1040,3810,15,18.2,74.3,5650,> 100,20,34.1,15.7,"C[C@@H]1Cc2c([nH]c3ccc(F)cc23)[C@@H](c2c(F)cc(N[C@H]3CCN(CCCF)C3)cc2F)N1CC(F)(F)F [Compound 18, (S)—N-(3,5-difluoro-4-((1R,3R)-6-fluoro-3-methyl-2-(2,2,2-trifluoroethyl)-2,3,4,9-tetrahydro-1H-pyrido[3,4-b]indol-1-yl)phenyl)-1-(3-fluoropropyl)pyrrolidin-3-amine]",2.82,100 ± 1.79
853 ± 48,39.2 ± 2.8,31.4 ± 5.9,57.6 ± 14,1970 ± 469,3360,16.3,21.6,65.6,4410,> 100,19.5,23.4,18.9,"C[C@@H]1Cc2c([nH]c3cc(F)ccc23)[C@@H](c2c(F)cc(N[C@H]3CCN(CCCF)C3)cc2F)N1CC(F)(F)F [Compound 32, (S)—N-(3,5-difluoro-4-((1R,3R)-7-fluoro-3-methyl-2-(2,2,2-trifluoroethyl)-2,3,4,9-tetrahydro-1H-pyrido[3,4-b]indol-1-yl)phenyl)-1-(3-fluoropropyl)pyrrolidin-3-amine]",4.14,100.2 ± 0.74
1570 ± 143,20.8 ± 2,18.1 ± 2.1,51 ± 2.1,3200 ± 129,10200,8.21,16.6,50.2,10200,41.6,> 42.8,21.5,> 12.7,"C#Cc1ccc2c3c([nH]c2c1)[C@@H](c1c(F)cc(N[C@H]2CCN(CCCF)C2)cc1F)N(CC(F)(F)F)[C@H](C)C3 [Compound 43, (S)—N-(4-((1R,3R)-7-ethynyl-3-methyl-2-(2,2,2-trifluoroethyl)-2,3,4,9-tetrahydro-1H-pyrido[3,4-b]indol-1-yl)-3,5-difluorophenyl)-1-(3-fluoropropyl)pyrrolidin-3-amine]",12.3,98.28 ± 0.93

# From patent publication US20240208932A1, “ARYLAMINO DERIVATIVE ESTROGEN RECEPTOR MODULATOR AND USE THEREOF” (XIZANG HAISCO PHARMACEUTICAL CO., LTD., priority 2021, published 2024)
